Where two headings read alike, the source gives them in different places. Each block holds one compound with its values, some of them ahead of it.
Columns and labels:
[1] = tested on: larvae of the mustard beetle (Phaedon cochleariae); assay: Phaedon test (PHAECO spray treatment); assay type: in vivo; conditions: 168 h, 100 g/ha, after 7 days, read-out: activity in %
Description: (§1) Solvents: 78.0 parts by weight of acetone • • 1.5 parts by weight of dimethylformamide
(§2) Emulsifier: 0.5 part by weight of alkylaryl polyglycol ether
(§3) An appropriate preparation of active compound is prepared by mixing 1 part by weight of active compound with the stated amounts of solvent and emulsifier and diluting the concentrate with emulsifier-containing water to the desired concentration.
After 7 days, the activity in % is ascertained. Here, 100% means that all of the beetle larvae have been killed; 0% means that no beetle larvae have been killed.

[2] = log P determination by HPLC on reversed-phase columns (EEC Directive 79/831 Annex V.A8); assay type: physicochemical; conditions: pH 2.7
Description: Determination by LC-MS in the acidic range takes place at a pH of 2.7 using 0.1% aqueous formic acid and acetonitrile (containing 0.1% formic acid) as eluents, with a linear gradient from 10% acetonitrile to 95% acetonitrile.
Calibration was carried out using unbranched alkan-2-ones (having 3 to 16 carbon atoms) with known log P values (the log P values are determined from the retention times by linear interpolation between two successive alkanones).

[3] = tested on: caterpillars of the armyworm (Spodoptera frugiperda); assay: Spodoptera frugiperda test (SPODFR spray treatment); assay type: in vivo; conditions: 168 h, read-out: activity in %
Description: as §1, §2, §3
Leaf discs of maize (Zea mays) are sprayed with a preparation of active compound at the desired concentration and, after drying, are populated with caterpillars of the armyworm (Spodoptera frugiperda).
After 7 days, the activity in % is ascertained. Here, 100% means that all of the caterpillars have been killed; 0% means that no caterpillar has been killed.

[4] = reversed-phase C18 HPLC column, HPLC on reversed-phase columns (C 18), EEC Directive 79/831 Annex V.A8, read-out: logP

SMILES: Cc1cc(C#N)cc(C(N)=O)c1NC(=O)c1cc(Cn2cc(-c3ccc(C(F)(F)F)cc3)nn2)nn1-c1ncccc1Cl [Example 2]
- pest or weed control at 100 g/ha [1]: 100%
- chromatographic logP [2]: 2.81
- pest or weed control at 100 g/ha ([3]; 100 g/ha, after 7 days): 100%

SMILES: CNC(=O)c1cc(C#N)cc(C)c1NC(=O)c1cc(Cn2cc(-c3ccc(C(F)(F)F)cc3)nn2)nn1-c1ncccc1Cl [Example 3]
- pest or weed control at 100 g/ha [1]: 100%
- chromatographic logP [2]: 2.99
- pest or weed control at 100 g/ha ([3]; 100 g/ha, after 7 days): 100%

- chromatographic logP [2, 4]: 3.39
SMILES: Cc1cc(C#N)cc(C(=O)NC(C)C)c1NC(=O)c1cc(Cn2cc(-c3ccc(C(F)(F)F)cc3)nn2)nn1-c1ncccc1Cl [Example 4]
- pest or weed control at 100 g/ha [1]: 100%
- pest or weed control at 100 g/ha ([3]; 100 g/ha, after 7 days): 100%

SMILES: CNC(=O)c1cc(Cl)cc(C)c1NC(=O)c1cc(Cn2cc(C(C)C)nn2)nn1-c1ncccc1Cl [Example 14]
- pest or weed control at 100 g/ha [1]: 83%
- chromatographic logP [2]: 2.29

SMILES: CNC(=O)c1cc(Cl)cc(C)c1NC(=O)c1cc(Cn2cc(-c3ccc(F)cc3)nn2)nn1-c1ncccc1Cl [Example 16]
- pest or weed control at 100 g/ha [1]: 100%
- chromatographic logP [2]: 2.84
- pest or weed control at 100 g/ha ([3]; 100 g/ha, after 7 days): 83%

SMILES: CNC(=O)c1cc(Cl)cc(C)c1NC(=O)c1cc(Cn2cc(-c3ccc(Cl)cc3)nn2)nn1-c1ncccc1Cl [Example 17]
- pest or weed control at 100 g/ha [1]: 100%
- chromatographic logP [2]: 3.57
- pest or weed control at 100 g/ha ([3]; 100 g/ha, after 7 days): 100%

SMILES: CNC(=O)c1cc(Cl)cc(C)c1NC(=O)c1cc(Cn2cc(-c3ccc(Cl)cc3Cl)nn2)nn1-c1ncccc1Cl [Example 18]
- pest or weed control at 100 g/ha [1]: 100%
- chromatographic logP [2]: 3.2
- pest or weed control at 100 g/ha ([3]; 100 g/ha, after 7 days): 100%

SMILES: CNC(=O)c1cc(C#N)cc(C)c1NC(=O)c1cc(Cn2cc(C3CC3)nn2)nn1-c1ncccc1Cl [Example 29]
- pest or weed control at 100 g/ha [1]: 100%
- chromatographic logP [2]: 1.86

SMILES: CNC(=O)c1cc(C#N)cc(C)c1NC(=O)c1cc(Cn2cc(C(C)C)nn2)nn1-c1ncccc1Cl [Example 30]
- pest or weed control at 100 g/ha [1]: 100%
- chromatographic logP [2]: 2.03

SMILES: CNC(=O)c1cc(C#N)cc(C)c1NC(=O)c1cc(Cn2cc(C(C)(C)C)nn2)nn1-c1ncccc1Cl [Example 31]
- pest or weed control at 100 g/ha [1]: 100%
- chromatographic logP [2]: 2.25

SMILES: CNC(=O)c1cc(C#N)cc(C)c1NC(=O)c1cc(Cn2ncc(C3CC3)n2)nn1-c1ncccc1Cl [Example 37]
- pest or weed control at 100 g/ha [1]: 100%
- chromatographic logP [2]: 2.28

SMILES: CNC(=O)c1cc(C#N)cc(C)c1NC(=O)c1cc(Cn2ncc(C(C)C)n2)nn1-c1ncccc1Cl [Example 38]
- pest or weed control at 100 g/ha [1]: 100%
- chromatographic logP [2]: 2.58

SMILES: Cc1cc(Cl)cc(C(=O)NC(C)(C)C)c1NC(=O)c1cc(Cn2ncc(C3CC3)n2)nn1-c1ncccc1Cl [Example 46]
- pest or weed control at 100 g/ha [1]: 100%
- chromatographic logP [2]: 3.6

SMILES: Cc1cc(I)cc(C(=O)NC2CCC2)c1NC(=O)c1cc(Cn2ncc(C(F)(F)F)n2)nn1-c1ncccc1Cl [Example 164]
- pest or weed control at 100 g/ha [1]: 100%
- chromatographic logP [2]: 3.89

SMILES: Cc1cc(C#N)cc(C(=O)NCC#N)c1NC(=O)c1cc(Cn2cc(C(F)(F)F)nn2)nn1-c1ncccc1Cl [Example 186]
- pest or weed control at 100 g/ha [1]: 100%
- chromatographic logP [2]: 2.32

SMILES: O=C(NC1CC1)c1cc(Cl)cc(Cl)c1NC(=O)c1cc(Cn2cc(C(F)(F)F)nn2)nn1-c1ncccc1Cl [Example 199]
- chromatographic logP [2]: 2.89
- pest or weed control at 100 g/ha ([3]; 100 g/ha, after 7 days): 100%

SMILES: CC(C)NC(=O)c1cc(Cl)cc(Cl)c1NC(=O)c1cc(Cn2cc(C(F)(F)F)nn2)nn1-c1ncccc1Cl [Example 200]
- chromatographic logP [2]: 3.1
- pest or weed control at 100 g/ha ([3]; 100 g/ha, after 7 days): 100%

- chromatographic logP [2, 4]: 3.48
SMILES: Cc1cc(C#N)cc(C(=O)NC(C)(C)C)c1NC(=O)c1cc(Cn2cc(C(F)(F)F)nn2)nn1-c1ccccc1Cl [Example 292]
- pest or weed control at 100 g/ha ([3]; 100 g/ha, after 7 days): 100%

SMILES: Cc1cc(Cl)cc(C(=O)NC(C)(C)C)c1NC(=O)c1cc(Cn2ncc(C(F)(F)C(F)(F)C(F)(F)F)n2)nn1-c1ncccc1Cl [Example 374]
- chromatographic logP ([2]; HPLC on reversed-phase columns (C 18), EEC Directive 79/831 Annex V.A8, read-out: logP): 4.65
- pest or weed control at 100 g/ha [3]: 100%

Reference: patent US8536202B2, “Triazole-substituted anthranilamides as pesticides” (Bayer Cropscience AG, priority 2010, dated 2013)
